Laboratory results taken from PubChem BioAssay AID720589 (Broad Institute, 2013).
Active and inactive are the calls of the source.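 Rule for the calls: active = fitted curve drops below -35% activity at a concentration within twice the top valid tested dose; inconclusive = no clear call, values can overlap the other calls; inactive = signal rising instead of falling, among other cases.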

Test: ATP-based viability loss in HepG2 cells – cell-based, CellTiter-Glo luminescence, cherry-pick, set 3, cytotoxicity control, dose response (AID 720589)
Settings: HepG2 viability, ATP luminescence (CellTiter-Glo), 72 h; at 0.9 µM; hits give low values; 0% = untreated, negative = ATP loss

SMILES	max activity
COC(=O)C[C@@H]1CC[C@@H]2[C@H](COc3ccc(NC(=O)c4ccc(F)cc4)cc3C(=O)N2C)O1	-31.5% (inactive)

Same assay, conditions: HepG2 viability, ATP luminescence (CellTiter-Glo), 72 h; at 2.85 µM; hits give low values

SMILES	max activity
C[C@]12CC[C@H](O)C[C@H]1CC[C@@H]1C2CC[C@]2(C)[C@@H](C3=CC(=O)OC3)[C@@H](O)C[C@]12O (some centres undefined)	-53.6% (inactive)

Same assay, conditions: HepG2 viability, ATP luminescence (CellTiter-Glo), 72 h; at 2.85 µM; hits give low values; 0% = untreated, negative = ATP loss

SMILES	max activity
CCCCCCCCCCCCCCCCCCNc1ccn(C2OC(COP(=O)(O)OCC3OC(n4cc(F)c(=O)[nH]c4=O)CC3O)C(O)C2O)c(=O)n1 (centres undefined)	-36% (inactive)
COc1ccc(-c2cnc3c(NC=O)cc(-c4ccccc4OC)cn23)cc1OC	-32.9% (inactive)
Cc1ccccc1N=Nc1c(O)n(C)c2ccccc12	-14.8% (inactive)
CN(C)c1ccc2c(c1)[C@@H]1C[C@@H](CC(=O)NCc3ccc(Oc4ccccc4)cc3)O[C@H](CO)[C@@H]1O2	-31.7% (inactive)
C[C@H](CO)N1C[C@H](C)[C@H](CN(C)Cc2ccc(C(=O)Nc3ccccc3N)cc2)Oc2ccc(NS(=O)(=O)c3cccs3)cc2C1=O	-29.1% (inactive)
O=c1[nH]c(=O)n([C@H]2C[C@H](O)[C@@H](CO)O2)cc1F	-50.3% (inactive)

Same assay, conditions: HepG2 viability, ATP luminescence (CellTiter-Glo), 72 h; at 8 µM; hits give low values; 0% = untreated, negative = ATP loss

SMILES	max activity
CC(=O)c1ccc(N(C(=O)Cn2nnc3ccccc32)C(C(=O)NCc2ccccc2)c2ccccn2)cc1 (centres undefined)	-38% (inactive)
COc1ccc(N=C(NN)c2ccc3ccccc3n2)cc1	-15.2% (inactive)
COc1ccc2oc(-c3ccccc3)cc(=O)c2c1	25.1% (inactive)
COc1ccc(OC)c(/C=C/c2ccnc3ccccc23)c1	-41.5% (inactive)
O=C(COC(=O)c1ccc[nH]c1=O)Nc1ccc(N2CCCCC2)cc1	-25.3% (inactive)
COc1ccccc1NC(=O)N1[C@@H]2CNC[C@H]1[C@@H]2c1ccc(-c2ccc(C#N)cc2)cc1	-24.4% (inactive)
CCc1ccc(/C=C2\SC(=S)N(CCCC(=O)NC3=NCCS3)C2=O)cc1	-19% (inactive)
CCN1CCS/C1=C\C=C\C1=[N+](CC)CCS1	-37.7% (inactive)

Same assay, conditions: HepG2 viability, ATP luminescence (CellTiter-Glo), 72 h; at 23.5 µM; hits give low values; 0% = untreated, negative = ATP loss

SMILES	max activity
N#C[C@H]1N[C@H](CO)[C@H]1c1ccc(C#Cc2ccccc2F)cc1	-26.9% (inactive)
O=S(=O)(c1ccc(F)cc1)N1C[C@H]2[C@@H](c3ccccc31)[C@H](CO)N2Cc1ccccc1Cl	-21.9% (inactive)

Same assay, conditions: HepG2 viability, ATP luminescence (CellTiter-Glo), 72 h; at 26 µM; hits give low values; 0% = untreated, negative = ATP loss

SMILES	max activity
COc1ccc(C(=O)CN2C(=O)c3ccccc3S2(=O)=O)cc1	10.2% (inactive)
O=c1[nH]c(/C=C2\C=Nc3ccccc32)c(O)n1Cc1ccccc1F	-19.8% (inactive)
COC(=O)COc1ccc(-c2nccc(-c3ccccn3)n2)cc1	18.7% (inactive)
COc1ccc(-c2nc3c(s2)CCc2onc(-c4ccc(OC)cc4)c2-3)cc1	-25.8% (inactive)
O=c1[nH]c(=O)n(C2C[C@H](O)[C@@H](CO)O2)cc1C(F)(F)F (some centres undefined)	-30.8% (inactive)
C(=N\Nc1ccc2ccccc2n1)/c1ccc2c(c1)OCCO2	-26.2% (inactive)
Cc1nc2ncccn2c1-c1csc(Nc2ccc(O)cc2)n1	-23.1% (inactive)
O=C(O)c1ccc2cc(-c3ccccc3)[nH]c2c1	-25% (inactive)
COc1ccc(C=C2CCc3ccccc3C2=O)cc1	-23.4% (inactive)
O=C(O)c1ccc(N/N=C/c2ccc3nccnc3c2)cc1	-27.1% (inactive)
COc1cccc(OC)c1C(=O)Nc1cc(C)nn1-c1nc2ccccc2[nH]1	-39.9% (inactive)
CCOc1cc(N2CCC(O)CC2)ccc1Nc1ncc2c(n1)N(C)c1ccccc1C(=O)N2C	-18.4% (inactive)
Nc1sc(-c2ccccc2)cc1-c1n[nH]c(=S)n1C1CCCCC1	-25.2% (inactive)
Cc1ccc(C(CC(=O)O)Nc2nc(N3CCOCC3)nc(N3CCOCC3)n2)cc1 (centres undefined)	36.9% (inactive)
O=C(CCCN1C(=O)S/C(=C\c2ccccc2)C1=O)NNC(=O)c1ccccc1O	-21.8% (inactive)
CCCN(C)C[C@H]1Oc2ncc(-c3ccccc3)cc2C(=O)N([C@@H](C)CO)C[C@H]1C	18.2% (inactive)
O=C1C(=O)N(CCS(=O)(=O)c2ccccc2)c2ccccc21	24.1% (inactive)
Cc1cccc(NC(=O)CN2CCN(C(=O)CNC(=O)c3ccc(-c4ccccc4)cc3)CC2)c1C	-36.3% (inactive)
COc1ccc(Cl)cc1S(=O)(=O)Nc1ccc2c(c1)n(C)c(=O)n2C	-15.6% (inactive)
O=C(Nc1nc(-c2ccc(F)c(F)c2)cs1)c1ccc(OCC2CCCO2)cc1 (centres undefined)	-28.7% (inactive)
COc1ccc(CNc2ncc(-c3ccc(F)cc3)n2C)c2ccccc12	-23.1% (inactive)
